Test results as given in PubChem BioAssay (NCI).
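The compound was tested at five concentrations on cells cultured in 96-well plates, with a 48-hour exposure period. TGI is the concentration that stops growth completely.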

Key:
Experiment in all cases: DTP human tumour cell line panel, 48 h
RXF 393 renal = tested on: RXF 393 renal
MDA-MB-435 = tested on: MDA-MB-435
RPMI-8226 leukemia = tested on: RPMI-8226 leukemia
T-47D breast = tested on: T-47D breast
DU-145 prostate = tested on: DU-145 prostate
MDA-MB-231 breast = tested on: MDA-MB-231 breast
SN12C renal = tested on: SN12C renal
HCC-2998 colon = tested on: HCC-2998 colon
UACC-257 melanoma = tested on: UACC-257 melanoma
SF-295 CNS = tested on: SF-295 CNS
SNB-75 CNS = tested on: SNB-75 CNS
OVCAR-5 ovarian = tested on: OVCAR-5 ovarian
SK-MEL-2 melanoma = tested on: SK-MEL-2 melanoma
COLO 205 colon = tested on: COLO 205 colon
UO-31 renal = tested on: UO-31 renal
UACC-62 melanoma = tested on: UACC-62 melanoma
NCI-H226 lung = tested on: NCI-H226 lung
SK-MEL-5 melanoma = tested on: SK-MEL-5 melanoma
BT-549 breast = tested on: BT-549 breast
HL-60(TB) leukemia = tested on: HL-60(TB) leukemia

Measured: TGI

O=C(O)[C@@H]1NC[C@H]2C(Br)=NO[C@H]21
> 100 µM: all assays above
